{
  "source": "patent US20240325429A1",
  "about": "“MINOR SPLICEOSOME TARGETING COMPOSITIONS AND THEIR USE IN CANCER TREATMENT” (UNIVERSITÄT BERN, priority 2021, published 2024)",
  "type_in_all_cases": "cell-based, human",
  "key": {"minor spliceosome (MiS)": {"test_system": "minor spliceosome (MiS)", "assay": "Luciferase minor intron splicing reporter assay", "experimental": "(§1) CMV-luc2CP/ARE (major intron splicing reporter), CMV-luc2CP (empty vector backbone control) and luc1CFH4 (minor splicing intron reporter) were a kind gift from Dr. Gideon Dreyfuss (University of Pennsylvania). DNA was amplified via chemical transformation of One Shot Mach1 T1 Phage-Resistant Chemically Competent E. coli cells (Invitrogen, C862003) and Sanger sequenced.\n(§2) 24 hours prior analysis cells of each condition were co-transfected with each reporter plasmid and the empty vector backbone plasmid. In short 1.5 ul of P3000 reagent plus 0.5 ug of DNA and 1.5 ul Lipofectamine P300 were each diluted in 25 ul Opti-MEMH medium. Both mixes were pooled and incubated for 20 minutes before the solution was added to the cells. Luciferase expression was measured with the Dual-Glo® Luciferase Assay System (Promega, E2940): media was removed, 100 ul of PLB were added and cells were frozen for two hours at −20 C. After a one hour shaking step 100 ul of LAR substrate was added and Firefly luciferase expression was measured with a Tecan Infinite M200PRO reader. Values were calculated as x-fold of CMV-luc2CP expression and subsequently as the x-fold of the respective reference control."}, "[1]": {"test_system": "C4-2 cells and enzalutamide-resistant LNCaP (L-rENZ) cells", "assay": "Growth curves with siRNA +/- enzalutamide", "conditions": "CRPC C4-2 and L-rENZ cells; compared with EZH2 plus enzalutamide", "experimental": "For growth experiments cells were treated with siRNA and two hours later with 20 uM enzalutamide. Enzalutamide was refreshed 3 days later.\nCells were seeded in a 6 well (400 000) and treated according to assay conditions over night. Cells were then seeded in Poly-L-Lysine coated 96-well plates (8000 cells/well, n=3 per condition) and WCM154 cells were seeded in a collagen-coated 96-well plates (5000 cells/well, n=3 per condition). Remaining cells were used for U6atac KD control via qRT-PCR. Cell viability was determined after 24, 48, 72, and 96 h with a Tecan Infinite M200PRO reader using the CellTiter-Glo® Luminescent Cell Viability Assay according to manufacturer's directions (Promega, G9243). Viability values were calculated as x-fold of cells transfected with siRNA for 0 h. Cell confluence (n=4 per condition) was determined using the Incucyte S3 instrument and the IncuCyte S3 2018B software (Essen Bioscience, Germany). Values were calculated as x-fold of timepoint 0 and then as fold-change in confluency as compared to siScrambled treated controls."}, "major spliceosome": {"test_system": "major spliceosome", "assay": "Luciferase major intron splicing reporter assay", "conditions": "LNCaP and C4-2 cells, long term ADT/ARSi", "experimental": "as §1\nas §2, with “To determine the minor/major intron splicing rate cells were seeded in white 96 well plate (Huberlab, 7.655 098) (8000/well) and treated according to assay conditions. 24” for “24”"}},
  "data": [
    {"smiles": "COc1ccc(C[C@H]2NC[C@H](O)[C@H]2OC(C)=O)cc1", "note": "[anisomycin]", "values": [
      {"measurement": "effect on minor intron splicing (luc-splicing reporter)", "setting": "minor spliceosome (MiS); LNCaP, C4-2, H660 cells and MSK8, MSK10, MSK16, PM154, PM1262 organoids, p38MAPK activation", "result": "only observed in PCa-NE cells and organoids (H660, PM154 and MSK10)"}
    ]},
    {"smiles": "C[C@]12CCC(=O)C[C@@H]1CC[C@@H]1[C@@H]2CC[C@]2(C)[C@@H](O)CC[C@@H]12", "note": "[dihydrotestosterone]", "values": [
      {"measurement": "MiS activity (luciferase reporter)", "setting": "minor spliceosome (MiS)", "result": "rescued MiS activity to levels observed in L-AR alone"}
    ]},
    {"smiles": "CNC(=O)c1ccc(N2C(=S)N(c3ccc(C#N)c(C(F)(F)F)c3)C(=O)C2(C)C)cc1F", "note": "[enzalutamide]", "values": [
      {"measurement": "cell growth / proliferation", "setting": "[1]", "result": "increased CRPC growth in resistant cells"},
      {"measurement": "major splicing (luc-reporter)", "setting": "major spliceosome", "result": "only limited effects"},
      {"measurement": "MiS activity (minor splicing luc-reporter)", "setting": "minor spliceosome (MiS); LNCaP and C4-2 cells, long term ADT/ARSi", "result": "significant increase in MiS activity"}
    ]}
  ]
}
